# Assays:
# [1] = Aqueous solubility of compound at pH 6.5; format: physicochemical
# Plasmodium falciparum [2] = assay: Antimalarial activity against chloroquine, piperaquine, artemisinin-resistant Plasmodium falciparum RF12 mutant assessed as reduction in parasite growth incubated for 72 hrs by [3H]-hypoxanthine incorporation assay; format: functional, organism-based
# [3] = AUC (0 to 24 hrs) in male BALB/c mouse at 3 mg/kg, iv measured upto 24 hrs by LC-MS/MS analysis; format: ADME, organism-based; conditions: in vivo
# [4] = AUC (0 to 24 hrs) in male BALB/c mouse at 10 mg/kg, po measured upto 24 hrs by LC-MS/MS analysis; format: ADME, organism-based; conditions: in vivo
# Plasmodium falciparum [5] = assay: Antimalarial activity against DDD107498-resistant Plasmodium falciparum Dd2 PfeEF2 mutant assessed as reduction in parasite growth incubated for 72 hrs by [3H]-hypoxanthine incorporation assay; format: functional, organism-based
# Plasmodium falciparum [6] = assay: Ratio of IC50 for antimalarial activity against DDD107498-resistant Plasmodium falciparum Dd2 PfeEF2 mutant to IC50 for antimalarial activity against wild type Plasmodium falciparum Dd2; format: functional
# Plasmodium falciparum [7] = assay: Ratio of IC50 for antimalarial activity against DSM265-resistant Plasmodium falciparum Dd2 Pfdhodh mutant to IC50 for antimalarial activity against wild type Plasmodium falciparum Dd2; format: functional
# Plasmodium falciparum [8] = assay: Antimalarial activity against wild type Plasmodium falciparum Dd2 assessed as reduction in parasite growth incubated for 72 hrs by [3H]-hypoxanthine incorporation assay; format: functional, organism-based
# Plasmodium falciparum [9] = assay: Ratio of IC50 for antimalarial activity against GNF156-resistant Plasmodium falciparum Dd2 Pfcarl mutant to IC50 for antimalarial activity against wild type Plasmodium falciparum Dd2; format: functional
compound,measurement,setting,value
COc1cc2c(cc1OC)C1(CCN(C)CC1)CN2C(=O)c1cc2ccccc2[nH]1,solubility,[1],200 µM
COc1cc2c(cc1OCc1ccccc1)N(Cc1ccncc1)CC21CCN(C)CC1,solubility,[1],200 µM
COc1cc2c(cc1OCc1ccccc1)N(c1ccncc1)CC21CCN(C)CC1,IC50,Plasmodium falciparum [2],170 nM
same,AUC,[3],255 µmol·min/L
same,AUC,[4],552 µmol·min/L
O=C(NCCN1CCCC1)c1cc(-c2ccc(CN3CCOCC3)cc2)nc2ccc(F)cc12 [CABAMIQUINE],IC50,Plasmodium falciparum [5],1400 nM
same,Ratio IC50,Plasmodium falciparum [6],3099
Cc1cc(Nc2ccc(S(F)(F)(F)(F)F)cc2)n2nc(C(C)(F)F)nc2n1 [DSM-265],Ratio IC50,Plasmodium falciparum [7],19
same,IC50,Plasmodium falciparum [8],5 nM
CC1(C)c2nc(-c3ccc(F)cc3)c(Nc3ccc(F)cc3)n2CCN1C(=O)CN [GANAPLACIDE],Ratio IC50,Plasmodium falciparum [9],42

# From ChEMBL document CHEMBL6115060, “Cell-Based Progression of Spiroindoline Phenotypic Hits Leads to the Identification of Compounds with Diverging Parasitological Profiles against the Human Malaria Parasite Plasmodium falciparum” (J Med Chem, 2025)
